Our source for the IC50, solubility and half-life values is patent US12649748B2, “Wee1 inhibitor and use thereof” (JIANGSU TASLY DIYI PHARMACEUTICAL CO., LTD., priority 2021, dated 2026).

In brackets after ≈: the same amount, converted by molar mass. Read-outs that look alike come from different tables or passages of the source.

One data set deals with T1, Wee1 protein (Homo sapiens, UniProt P30291).
T1 construct: purchased Thermo Fisher PR7373A
Briefly: Binding of compound to Wee1 protein and Tracer 178 by TR-FRET. The conditions noted are these: inhibitory activity against Wee1 kinase, read-out: IC50 measured value. The protocol:
First, solutions of the compounds in different concentration gradients were prepared. […] DMSO was added as a positive control (maximal signal control) and a negative control (minimal signal control) and a final level of 0.25% DMSO was ensured in each reaction well.
WEE1 (Thermo Fisher, Cat #PR7373A) protein in buffer (50 mM Hepes pH 7.5, 10 mM MgCl2, 1 mM EGTA, 0.01% Brij-35) at 15 nM) in different concentrations of compound, and Tracer 178 (Invitrogen, PV5593) and MAb Anti-GST-Eu crypate (Cisbio, 61GSTKLA) were added to 384-well plates (Corning, cat #3574), centrifuged at 1000 rpm for 1 min and the 384-well plates were incubated in a constant temperature shaker for 60 min at 25° C. and 300 rpm. Tracer 178 and MAb Anti-GST-Eu crypate were prepared in buffer (50 mM HEPES pH 7.5, 10 mM MgCl2, 1 mM EGTA, 0.01% Brij-35) with a final reaction concentration of 50 nM for Tracer 178 and a final concentration of 2 nM for MAb Anti-GST-Eu crypate, where the negative control (minimal signal control) used an equal amount of buffer in place of the protein solution.
After incubation, readings were performed using BMG PHERAStar (excitation light at 337 nm and emission light at wavelength values of 620 nm and 665 nm to read the fluorescence signal values). […] The IC50 for inhibition of enzyme activity by the compounds was then calculated using GraphPad Prism 6 and fitted with a log (inhibitor) vs. response-Variable slope mode. The fitting equation was: Y=Bottom+(Top-Bottom)/(1+10^((Log IC50−X)*HillSlope)), where Y represents the percentage of residual enzyme activity known and X represents the known concentration of compound after the logarithm.

For a further data set, the system named is H1299 cells. Put plainly: Anti-proliferative effect by Cell Titer-Glo, H1299. It counts as cell-based. The conditions noted are these: Homo sapiens, NCI-H1299, 72 h, read-out: IC50 measured value H1299. As for the experimental part: (§1) Compound solutions of different concentration gradients were prepared. DMSO was dissolved to a concentration of 10 mM test compound and 10 mM reference compound AZD1775, and the compounds were serially diluted in culture medium for a total of 9 dose points, with 2 parallel replicates set at each concentration. The cell growth group without compound was used as a positive control (maximum signal control) and the medium was used as a negative control (minimum signal control), while ensuring that the final level of DMSO in each reaction well was 0.2%. After removing the medium from the 384-well plate, 25 ul of the configured compound at different concentrations was transferred into the well plate and the compound and cells were incubated in the cell incubator at 37° C. with 5% CO2 for 3 days.
(§2) The 384-well plates were removed from the cell incubator and allowed to equilibrate for 1 h to room temperature. 25 ul of Cell Titer-Glo assay was added to each well, lysed on a shaker for 2 min and then read out (Luminescence) using a BMG PHERAStar after 10 min incubation. Calculate the inhibition rate from the luminescence signal: first calculate the average of the positive control (maximum signal control) and the negative control (minimum signal control).
(§3) [formula] to calculate the rate of inhibition of the cells by different concentrations of the compounds. The IC50 of the compound on cell activity inhibition was calculated by fitting a log(inhibitor) vs. response-Variable slope model to GraphPad Prism 6. The fitted equation was: Y=Bottom+(Top−Bottom)/(1+10^((Log IC50−X)*HillSlope)), where Y represents the rate of inhibition and X represents the concentration of the known compound after Log.

A short description of another data set: Solubility test. It counts as physicochemical. The conditions noted are these: aqueous buffer, thermodynamic from solid; buffer solution, shaken at constant temperature 24 h. As for the experimental part: The compound was placed in a buffer solution and shaken at constant temperature for 24 h. […] Chromatographic conditions: C18 column, mobile phase A: 0.02 M potassium dihydrogen phosphate:acetonitrile=90:10, mobile phase B: acetonitrile; V: 1.0 ml/min, T: 35° C., λ: 210 nm.

For another data set, the system named is MIA Paca-2 cells. Put plainly: Anti-proliferative effect by Cell Titer-Glo, MIA Paca-2. Particulars: Homo sapiens, 72 h; MIA Paca-2 cells, 3 days, Cell Titer-Glo; read-out: IC50 measured value MIA Paca-2. Format: cell-based. As for the experimental part: as §1, §2, §3
(In general: Cellular ATP, detected with luciferase, serves as a proxy for viable cell number.)

Data set [1] in a line: Metabolic stability of liver microsomes in vitro (mouse). Particulars: read-out: Mouse T1/2/min. It counts as in vitro ADME. As for the experimental part:
(§4) Microsomes were taken out from the −80° C. refrigerator, rapidly melted in a 37° C. water bath and placed on ice until ready to use. The test article was diluted with DMSO to prepare a 10 mM stock solution, and then diluted with acetonitrile to a 0.5 mM secondary stock solution. The microsomes were diluted to 0.75 mg/ml using Buffer C; the secondary stock solution was then added to a final concentration of 1.5 μM of compound as working solution, based on n=2, 5 time points, 350 μL of each compound was prepared and placed on ice prior to use. NADPH was diluted with Buffer C to a working solution of 6 mM for the starter solution. An acetonitrile solution containing an internal standard was prepared as the precipitant, and Verapamil-HCl was chosen as the internal standard at a concentration of 4 ng/ml.
(§5) A round-bottom well plate was taken, noted as the reaction plate, and the prepared working solution for each compound was dispensed into the well plate according to the number of replicates and time points (0 h samples are also added to the reaction plate), 30 μL/well; the plate was incubated at 37° C. for 10 min. A separate plate with pointed bottom wells, noted as a precipitation plate, was added with 135 μL precipitant per well; 0 h samples were transferred to the plate after 10 min incubation and 15 μL of starter solution was added; the plate was placed on ice before centrifugation.
(§6) The diluted starter solution was added in sufficient quantity to the dispensing plate to facilitate the multichannel pipette aspiration operation.
(§7) The reaction was carried out on a warm incubation shaker and 15 μL of starter solution/sample is added to the plate using a multichannel pipette. The reaction was mixed with a slight shake to initiate the reaction, which was accurately timed and recorded using a timer;
(§8) After the reaction time had elapsed, all the solution in the plate was aspirated using the multichannel pipette and added to the precipitation plate to terminate the reaction at that point in time. After all reactions had been terminated, the plates were shaken for ten minutes on a plate shaker at 600 rpm to precipitate the protein. The plate was centrifuged at 4° C. for 15 minutes at maximum rpm. 80 μL of supernatant was taken, 320 μL of pure water was added and mixed for LC-MS analysis.

A short description of data set [2]: Metabolic stability of liver microsomes in vitro (human). It counts as in vitro ADME. Particulars: read-out: Human T1/2/min. As for the experimental part:
as §4, §5, §6, §7, §8
Background: Microsomes from liver hold many membrane-bound enzymes, among them those of drug oxidation.

T1 sequence (P30291 whole entry): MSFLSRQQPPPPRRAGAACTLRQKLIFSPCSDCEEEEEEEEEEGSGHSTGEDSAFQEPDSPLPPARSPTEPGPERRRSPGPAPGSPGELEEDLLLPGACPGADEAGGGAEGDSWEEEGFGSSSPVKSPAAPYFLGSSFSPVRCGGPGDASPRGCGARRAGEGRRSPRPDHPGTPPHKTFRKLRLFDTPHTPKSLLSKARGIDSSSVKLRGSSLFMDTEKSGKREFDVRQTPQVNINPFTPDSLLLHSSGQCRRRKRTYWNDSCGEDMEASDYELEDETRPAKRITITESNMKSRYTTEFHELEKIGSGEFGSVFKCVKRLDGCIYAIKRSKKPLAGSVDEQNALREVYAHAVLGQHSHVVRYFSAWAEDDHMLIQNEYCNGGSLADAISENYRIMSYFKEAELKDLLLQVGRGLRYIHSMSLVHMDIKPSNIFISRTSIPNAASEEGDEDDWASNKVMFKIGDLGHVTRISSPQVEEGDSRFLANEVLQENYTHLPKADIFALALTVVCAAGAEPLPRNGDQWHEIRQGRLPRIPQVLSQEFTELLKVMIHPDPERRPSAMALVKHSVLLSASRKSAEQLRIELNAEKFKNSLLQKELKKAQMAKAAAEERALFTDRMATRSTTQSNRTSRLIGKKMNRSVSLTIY

For the molecule `CN1CCN(c2ccc(Nc3ncc4cnn(-c5cccc(C6(C#N)CC6)n5)c4n3)cc2)CC1` [Compound 3], the half-maximal inhibitory concentration (IC50) (commonly the midpoint of a concentration-inhibition curve) at Wee1 protein lay in the range of 10 to 100 nM; with H1299 cells, 1000 to 5000 nM. Further, the concentration in solution in “Solubility test” (solubility at 24 h) was 60 µg/mL (≈ 133 µM).

On to `CN1CCC(c2ccc(Nc3ncc4cnn(-c5cccc(N=S(C)(C)=O)n5)c4n3)cc2)CC1` [Compound 18], for which the half-maximal inhibitory concentration (IC50) on Wee1 protein lay in the range of 1 to 10 nM; in the data set with H1299 cells (H1299 cells, 3 days, Cell Titer-Glo), 1000 to 5000 nM; with MIA Paca-2 cells, 100 to 1000 nM. Also, the half-life at 1 µM in data set [1] and in data set [2] was more than 2 h in each case.
